Experimental data: PMC4411097, “Pachymic Acid Inhibits Growth and Induces Apoptosis of Pancreatic Cancer In Vitro and In Vivo by Targeting ER Stress” (PLoS ONE, 2015)

Tests used:
[1] = system: PARP cleavage (c-PARP) in MIA PaCa-2 cells; test: Western blot for PARP cleavage (c-PARP); type: cell-based, human; details: MIA PaCa-2, PA 0–30 μM, 24 h
Description: (§1) Apoptosis induction in PA-treated cells was assessed by quantitation of cytoplasmic histone-associated DNA fragments and western blotting for PARP cleavage (c-PARP). The Cell Death Detection ELISA^PLUS Kit (Roche, Indianapolis, IN) was used to detect the amount of cytoplasmic histone-associated DNA fragments according to the manufacturer’s instructions and expressed relative to vehicle-treated cells (set equal to 1).
(§2) PANC-1, MIA PaCa-2 cells were treated with PA (0–30 μM) for 10 min, 30 min or 24 h, respectively. Whole protein extracts isolated from cells and tumor tissues were prepared and western blot analysis with anti-cleaved PARP, anti-XBP-1s, anti-ATF6, anti-ATF4, anti-Hsp70, anti-CHOP, anti-phospho-eIF2α or anti-eIF2α antibodies were performed as previously described. Western blots were quantified with HP-Scanjet 550c and analyzed by UN-SCAN-IT software (Silk Scientific, Orem, UT). Three independent experiments were done for all the immunoblot studies and quantitative data composed of all the experiments with statistical analysis were added below the representative blot image.

[2] = system: PARP cleavage (c-PARP) in PANC-1 cells; test: Western blot for PARP cleavage (c-PARP); type: cell-based, human; details: PANC-1, PA 0–30 μM, 24 h
Description: as §1, §2

[3] = system: normal pancreatic duct epithelial cells HPDE-6; set-up: method as in PMID 23588713; details: cited from earlier work
PANC-1 = system: PANC-1; set-up: method as in PMID 23588713; details: PANC-1, 24 h; read-out: IC50-24 h, inhibition of proliferation; cited from earlier work
[4] = system: MIA PaCa-2 tumor xenograft; test: Apoptosis measurement in tumor xenograft (apoptotic bodies, H&E); type: in vivo, female nude mice
Description: All formalin-fixed tumors were embedded in paraffin within 48 h and five-micrometer sections were stained with hematoxylin and eosin (H&E). The slides were viewed under a Leica microscope (Leica Instruments, Melville, NY) and apoptosis in the viable tumor cell area was quantified by counting apoptotic bodies in four 20 x fields of view for n = 6–12 tumors per group by 2 independent observers.

[5] = set-up: method as in PMID 22213174; details: rats fed by P. cocos; cited from earlier work
MIA PaCa-2 = system: MIA PaCa-2; set-up: method as in PMID 23588713; details: MIA PaCa-2, 24 h; read-out: IC50-24 h, inhibition of proliferation; cited from earlier work
[6] = system: ER stress response proteins in MIA PaCa-2 cells; test: Western blot of ER stress response proteins; type: cell-based, human
Description: as §2

[7] = system: ER stress response proteins in PANC-1 cells; test: Western blot of ER stress response proteins; type: cell-based, human
Description: as §2

C=C(CC[C@@H](C(=O)O)[C@H]1[C@H](O)C[C@@]2(C)C3=C(CC[C@]12C)[C@@]1(C)CC[C@H](OC(C)=O)C(C)(C)[C@@H]1CC3)C(C)C [PA, Pachymic acid]
Increase in expression of PARP cleavage vs vehicle-treated control [1]: ~4 fold
Increase in expression of PARP cleavage vs vehicle-treated control [2]: approximately 3 fold
Effect on growth of normal pancreatic duct epithelial cells [3]: only slightly affects
IC50 (PANC-1): 23.5 µM
Increase of apoptotic bodies in tumors vs control ([4]; 25 mg kg^-1): approximately 59%
Increase of apoptotic bodies in tumors vs control ([4]; 50 mg kg^-1): ~2 fold
Presence in urine and plasma [5]: detectable
IC50 (MIA PaCa-2): 26.6 µM
PA-phosphorylated eIF2α vs control ([6]; MIA PaCa-2, 30 μM PA, 10 min): ~3 fold
Activation of XBP1 and ATF4 (protein level) ([6]; MIA PaCa-2, PA 0–30 μM, 24 h): significantly activated
PA-phosphorylated eIF2α vs control ([7]; PANC-1, 30 μM PA, 10 min): ~2 fold
Activation of XBP1 and ATF4 (protein level) ([7]; PANC-1, PA 0–30 μM, 24 h): significantly activated
